Data taken from article PMC4766392, “Identification and Characterization of the Glucose-6-Phosphate Dehydrogenase Gene Family in the Para Rubber Tree, Hevea brasiliensis” (Frontiers in Plant Science, 2016).

Columns and labels:
Test in all cases: NADPH formation at […] nm, commercial kit, E. coli supernatant
Assay type in all cases: biochemical
Details in all cases: 25°C, MBP fusion, empty-vector control
[1] = target: T1, HbG6PDH1 (Hevea brasiliensis, UniProt A0A068LLN2)
T1 construct: gene G6PDH-1; forward primer starts at ATGCCAAGAAAATATGG

[2] = target: T2, HbG6PDH2 (Hevea brasiliensis, UniProt A0A068LJJ9)
T2 construct: gene G6PDH-2; forward primer starts at ATGGCGCCCCTTTC

[3] = target: T3, HbG6PDH3 (Hevea brasiliensis, UniProt A0A068LJY6)
T3 construct: gene G6PDH-3; primer with start codon ATGGGTTCGGGTCAGTGG

[4] = target: T4, HbG6PDH4 (Hevea brasiliensis, UniProt A0A068LJB4)
T4 construct: gene G6PDH-4; primer with start codon ATGTCGATGTCAATTTC

[5] = glucose-6-phosphate as co-substrate

T3 sequence (A0A068LJY6 entry or part of it): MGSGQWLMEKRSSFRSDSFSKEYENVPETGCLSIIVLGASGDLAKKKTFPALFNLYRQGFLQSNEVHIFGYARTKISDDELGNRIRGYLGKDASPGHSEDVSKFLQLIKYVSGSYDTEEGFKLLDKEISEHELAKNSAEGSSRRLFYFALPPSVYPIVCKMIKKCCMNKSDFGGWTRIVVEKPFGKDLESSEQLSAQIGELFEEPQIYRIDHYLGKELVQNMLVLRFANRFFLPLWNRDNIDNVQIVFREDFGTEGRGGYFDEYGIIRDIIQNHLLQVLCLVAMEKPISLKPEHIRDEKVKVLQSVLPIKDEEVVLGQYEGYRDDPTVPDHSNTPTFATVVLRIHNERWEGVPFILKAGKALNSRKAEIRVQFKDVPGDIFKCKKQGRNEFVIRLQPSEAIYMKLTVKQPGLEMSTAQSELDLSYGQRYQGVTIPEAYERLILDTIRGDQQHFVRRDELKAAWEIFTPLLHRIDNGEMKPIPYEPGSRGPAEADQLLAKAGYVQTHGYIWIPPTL
T2 sequence (A0A068LJJ9 entry or part of it): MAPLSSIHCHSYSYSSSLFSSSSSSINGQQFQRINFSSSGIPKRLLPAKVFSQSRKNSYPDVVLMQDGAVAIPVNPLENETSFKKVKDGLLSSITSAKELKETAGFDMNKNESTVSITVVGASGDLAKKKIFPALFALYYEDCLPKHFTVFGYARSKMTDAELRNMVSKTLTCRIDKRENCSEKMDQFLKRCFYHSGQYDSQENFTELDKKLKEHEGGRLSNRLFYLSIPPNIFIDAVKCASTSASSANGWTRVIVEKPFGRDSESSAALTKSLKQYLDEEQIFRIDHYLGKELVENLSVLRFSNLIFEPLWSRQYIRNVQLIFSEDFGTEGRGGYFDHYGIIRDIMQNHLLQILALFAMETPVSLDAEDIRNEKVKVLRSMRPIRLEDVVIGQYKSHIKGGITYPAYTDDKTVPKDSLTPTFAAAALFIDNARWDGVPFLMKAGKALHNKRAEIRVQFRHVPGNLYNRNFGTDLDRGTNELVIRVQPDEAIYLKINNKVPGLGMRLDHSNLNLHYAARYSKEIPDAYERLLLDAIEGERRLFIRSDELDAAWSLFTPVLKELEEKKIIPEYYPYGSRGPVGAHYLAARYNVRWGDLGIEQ
T1 sequence (A0A068LLN2 entry or part of it): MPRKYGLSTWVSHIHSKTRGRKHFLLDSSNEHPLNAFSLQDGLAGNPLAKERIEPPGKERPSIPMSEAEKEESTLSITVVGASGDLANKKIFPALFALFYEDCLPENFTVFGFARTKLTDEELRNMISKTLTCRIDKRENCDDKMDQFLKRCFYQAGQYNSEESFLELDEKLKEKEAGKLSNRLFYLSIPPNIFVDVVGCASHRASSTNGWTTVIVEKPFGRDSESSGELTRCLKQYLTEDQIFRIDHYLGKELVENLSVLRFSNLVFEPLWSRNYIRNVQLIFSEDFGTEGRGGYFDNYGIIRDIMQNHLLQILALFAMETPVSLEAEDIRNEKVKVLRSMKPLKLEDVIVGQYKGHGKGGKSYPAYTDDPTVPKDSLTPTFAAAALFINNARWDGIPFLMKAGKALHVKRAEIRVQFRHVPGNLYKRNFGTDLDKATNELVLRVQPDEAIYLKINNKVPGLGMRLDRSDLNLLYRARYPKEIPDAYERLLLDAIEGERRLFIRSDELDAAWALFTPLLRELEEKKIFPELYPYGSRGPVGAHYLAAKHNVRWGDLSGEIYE
T4 sequence (A0A068LJB4 entry or part of it): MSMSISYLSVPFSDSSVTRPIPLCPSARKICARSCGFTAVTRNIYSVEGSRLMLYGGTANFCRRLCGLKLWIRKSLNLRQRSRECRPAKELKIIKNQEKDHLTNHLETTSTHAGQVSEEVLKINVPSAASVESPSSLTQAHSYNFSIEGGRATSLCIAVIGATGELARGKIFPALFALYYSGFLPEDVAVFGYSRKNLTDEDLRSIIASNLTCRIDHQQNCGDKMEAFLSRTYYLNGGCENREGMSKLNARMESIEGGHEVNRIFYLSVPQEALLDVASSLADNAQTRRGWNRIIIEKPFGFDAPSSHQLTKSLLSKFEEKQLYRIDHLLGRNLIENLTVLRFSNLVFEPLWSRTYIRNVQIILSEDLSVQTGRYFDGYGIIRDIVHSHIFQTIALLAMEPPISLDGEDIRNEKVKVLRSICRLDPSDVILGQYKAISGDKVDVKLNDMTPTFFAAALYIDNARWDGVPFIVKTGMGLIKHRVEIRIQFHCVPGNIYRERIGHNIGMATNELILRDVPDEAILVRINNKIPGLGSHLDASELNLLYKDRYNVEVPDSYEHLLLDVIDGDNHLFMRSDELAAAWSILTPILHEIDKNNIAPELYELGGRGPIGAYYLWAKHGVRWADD

## O=P(O)(O)OC[C@H]1OC(O)[C@H](O)[C@@H](O)[C@@H]1O (some centres unmarked) [glucose-6-phosphate]
[1]; NADP+ as co-substrate
  NADPH formation at 340 nm, commercial kit, E. coli supernatant: all four HbG6PDH genes encode enzymatically active G6PDHs
[2]; NADP+ as co-substrate
  NADPH formation at 340 nm, commercial kit, E. coli supernatant: all four HbG6PDH genes encode enzymatically active G6PDHs
[3]; NADP+ as co-substrate
  NADPH formation at 340 nm, commercial kit, E. coli supernatant: all four HbG6PDH genes encode enzymatically active G6PDHs
[4]; NADP+ as co-substrate
  NADPH formation at 340 nm, commercial kit, E. coli supernatant: all four HbG6PDH genes encode enzymatically active G6PDHs

## NC(=O)c1ccc[n+]([C@@H]2O[C@H](COP(=O)(O)OP(=O)(O)OC[C@H]3O[C@@H](n4cnc5c(N)ncnc54)[C@H](OP(=O)(O)O)[C@@H]3O)[C@@H](O)[C@H]2O)c1 [NADP^+]
[1]; [5]
  NADPH formation at 340 nm, commercial kit, E. coli supernatant: all four HbG6PDH genes encode enzymatically active G6PDHs
[2]; [5]
  NADPH formation at 340 nm, commercial kit, E. coli supernatant: all four HbG6PDH genes encode enzymatically active G6PDHs
[3]; [5]
  NADPH formation at 340 nm, commercial kit, E. coli supernatant: all four HbG6PDH genes encode enzymatically active G6PDHs
[4]; [5]
  NADPH formation at 340 nm, commercial kit, E. coli supernatant: all four HbG6PDH genes encode enzymatically active G6PDHs
